The results in this text go back to patent publication US11390604B2 (Hoffmann-La Roche Inc., priority 2019, dated 2022).

Each structure is given as a SMILES string. Counter-ions that a name gives are not always drawn.

For the test, the system named is Acinetobacter baumannii ATCC 17961. Briefly: Antimicrobial susceptibility testing: 90% growth inhibitory concentration (IC90) determination. The test is classed as cell-based. To be noted: ATCC17961, Acinetobacter baumannii ATCC 17961, Iso-Sensitest broth, read-out: ATCC 17961 IC90. A digest of the protocol:
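Broth microdilution in Iso-Sensitest medium, twofold series (e.g. 50 to 0.097 μM final), ~5×10^5 CFU/ml inoculum, 35±2 °C. OD600 read every 20 min over 16 h. IC90 derived from growth inhibition during logarithmic phase.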
`Cn1c(-c2c[nH]nc2-c2ccccc2)cnc1C(=O)Nc1ccc(C(=O)N2CCN(C(=O)C3CCNCC3)CC2)c(Cl)c1` [Example 66, N-[3-chloro-4-[4-(piperidine-4-carbonyl)piperazine-1-carbonyl]phenyl]-1-methyl-5-(3-phenyl-1H-pyrazol-4-yl)imidazole-2-carboxamide]: the IC90 amounted to 825 nM.
As for `Cn1c(-c2cn(Cc3cccnc3)nc2C(F)(F)F)cnc1C(=O)Nc1ccc(C(=O)N2CCNCC2)c(Cl)c1` [Example 67, N-[3-chloro-4-(piperazine-1-carbonyl)phenyl]-1-methyl-5-[1-(pyridin-3-ylmethyl)-3-(trifluoromethyl)pyrazol-4-yl]imidazole-2-carboxamide;hydrochloride], the IC90 is 1440 nM.
Next, `Cn1c(-c2cn(CCF)nc2C(F)(F)F)cnc1C(=O)Nc1ccc(C(=O)N2CCNCC2)c(Cl)c1` [Example 68, N-[3-chloro-4-(piperazine-1-carbonyl)phenyl]-5-[1-(2-fluoroethyl)-3-(trifluoromethyl)pyrazol-4-yl]-1-methylimidazole-2-carboxamide;hydrochloride]: 489 nM; `Cn1c(-c2cn(CC#N)nc2C(F)(F)F)cnc1C(=O)Nc1ccc(C(=O)N2CCNCC2)c(Cl)c1` [Example 69, N-[3-chloro-4-(piperazine-1-carbonyl)phenyl]-5-[1-(cyanomethyl)-3-(trifluoromethyl)pyrazol-4-yl]-1-methylimidazole-2-carboxamide;2,2,2-trifluoroacetic acid]: 309 nM.
Take `Cn1c(-c2cn(Cc3cccnc3)nc2C(F)(F)F)cnc1C(=O)Nc1ccc(C(=O)N2CCN(C(=O)[C@H]3CCNC3)CC2)c(Cl)c1` [Example 70, N-[3-chloro-4-[4-[(3S)-pyrrolidine-3-carbonyl]piperazine-1-carbonyl]phenyl]-1-methyl-5-[1-(pyridin-3-ylmethyl)-3-(trifluoromethyl)pyrazol-4-yl]imidazole-2-carboxamide]: the IC90 is 497 nM.
For `C[C@H](N)C(=O)N1CCN(C(=O)c2ccc(NC(=O)c3ncc(-c4cn(CC#N)nc4C(F)(F)F)n3C)cc2Cl)CC1` [Example 71, N-[4-[4-[(2S)-2-aminopropanoyl]piperazine-1-carbonyl]-3-chlorophenyl]-5-[1-(cyanomethyl)-3-(trifluoromethyl)pyrazol-4-yl]-1-methylimidazole-2-carboxamide;2,2,2-trifluoroacetic acid], the IC90 worked out at 216 nM.
Consider `Cn1c(-c2cn(CC#N)nc2C(F)(F)F)cnc1C(=O)Nc1ccc(C(=O)N2CCN(C(=O)C3(O)CCCNC3)CC2)c(Cl)c1` (centres unmarked) [Example 72, N-[3-chloro-4-[4-(3-hydroxypiperidine-3-carbonyl)piperazine-1-carbonyl]phenyl]-5-[1-(cyanomethyl)-3-(trifluoromethyl)pyrazol-4-yl]-1-methylimidazole-2-carboxamide;2,2,2-trifluoroacetic acid], for which the IC90 was determined as 2260 nM.
`Cn1c(-c2cn(CC#N)nc2C(F)(F)F)cnc1C(=O)Nc1ccc(C(=O)N2CCN(C(=O)[C@H]3C[C@@H](N)C3)CC2)c(Cl)c1` [Example 73, N-[4-[4-(3-aminocyclobutanecarbonyl)piperazine-1-carbonyl]-3-chlorophenyl]-5-[1-(cyanomethyl)-3-(trifluoromethyl)pyrazol-4-yl]-1-methylimidazole-2-carboxamide;2,2,2-trifluoroacetic acid]: the IC90 was 2550 nM.
The figure for `Cn1c(-c2cn(CCF)nc2C(F)(F)F)cnc1C(=O)Nc1ccc(C(=O)N2CCN(C(=O)[C@H]3C[C@@H](N)C3)CC2)c(Cl)c1` [Example 74, N-[4-[4-(3-aminocyclobutanecarbonyl)piperazine-1-carbonyl]-3-chlorophenyl]-5-[1-(2-fluoroethyl)-3-(trifluoromethyl)pyrazol-4-yl]-1-methylimidazole-2-carboxamide;hydrochloride] is 347 nM.
The figure for `Cn1c(-c2cn(Cc3cccnc3)nc2C(F)(F)F)cnc1C(=O)Nc1ccc(C(=O)N2CCN(C(=O)C3(O)CCCNC3)CC2)c(Cl)c1` (centres unmarked) [Example 75, N-[3-chloro-4-[4-(3-hydroxypiperidine-3-carbonyl)piperazine-1-carbonyl]phenyl]-1-methyl-5-[1-(pyridin-3-ylmethyl)-3-(trifluoromethyl)pyrazol-4-yl]imidazole-2-carboxamide;hydrochloride] is 542 nM; for `C#CCn1cc(-c2cnc(C(=O)Nc3ccc(C(=O)N4CCN(C(=O)NCCNC)CC4)c(Cl)c3)n2C)c(C(F)(F)F)n1` [Example 76, 4-[2-chloro-4-[[1-methyl-5-[1-prop-2-ynyl-3-(trifluoromethyl)pyrazol-4-yl]imidazole-2-carbonyl]amino]benzoyl]-N-[2-(methylamino)ethyl]piperazine-1-carboxamide] it is 247 nM; for `C#CCn1cc(-c2cnc(C(=O)Nc3ccc(C(=O)N4CCN(C(=O)N5CCNCC5)CC4)c(Cl)c3)n2C)c(C(F)(F)F)n1` [Example 77, N-[3-chloro-4-[4-(piperazine-1-carbonyl)piperazine-1-carbonyl]phenyl]-1-methyl-5-[1-prop-2-ynyl-3-(trifluoromethyl)pyrazol-4-yl]imidazole-2-carboxamide] it is 257 nM.
The figure for `C#CCn1cc(-c2cnc(C(=O)Nc3ccc(C(=O)N4CCN(C(=O)N[C@H]5C[C@@H](N)C5)CC4)c(Cl)c3)n2C)c(C(F)(F)F)n1` [Example 78, N-(3-aminocyclobutyl)-4-[2-chloro-4-[[1-methyl-5-[1-prop-2-ynyl-3-(trifluoromethyl)pyrazol-4-yl]imidazole-2-carbonyl]amino]benzoyl]piperazine-1-carboxamide] is 109 nM; for `C#CCn1cc(-c2cnc(C(=O)Nc3ccc(C(=O)N4CCN(C(=O)N5CC[C@@H](N)C5)CC4)c(Cl)c3)n2C)c(C(F)(F)F)n1` [Example 79, N-[4-[4-[(3R)-3-aminopyrrolidine-1-carbonyl]piperazine-1-carbonyl]-3-chlorophenyl]-1-methyl-5-[1-prop-2-ynyl-3-(trifluoromethyl)pyrazol-4-yl]imidazole-2-carboxamide] it is 131 nM; for `C#CCn1cc(-c2cnc(C(=O)Nc3ccc(C(=O)N4CCN(C(=O)N5CC(C)(N)C5)CC4)c(Cl)c3)n2C)c(C(F)(F)F)n1` [Example 81, N-[4-[4-(3-amino-3-methylazetidine-1-carbonyl)piperazine-1-carbonyl]-3-chlorophenyl]-1-methyl-5-[1-prop-2-ynyl-3-(trifluoromethyl)pyrazol-4-yl]imidazole-2-carboxamide] it is 227 nM.
Regarding `C#CCn1cc(-c2cnc(C(=O)Nc3ccc(C(=O)N4CCN(C(=O)N[C@H]5CCC[C@H]5N)CC4)c(Cl)c3)n2C)c(C(F)(F)F)n1` [Example 82, N-[(1S,2R)-2-aminocyclopentyl]-4-[2-chloro-4-[[1-methyl-5-[1-prop-2-ynyl-3-(trifluoromethyl)pyrazol-4-yl]imidazole-2-carbonyl]amino]benzoyl]piperazine-1-carboxamide], the IC90 was 160 nM.
The figure for `C#CCn1cc(-c2cnc(C(=O)Nc3ccc(C(=O)N4CCN(C(=O)N[C@H]5CC[C@H](N)C5)CC4)c(Cl)c3)n2C)c(C(F)(F)F)n1` [Example 83, N-[(1S,3S)-3-aminocyclopentyl]-4-[2-chloro-4-[[1-methyl-5-[1-prop-2-ynyl-3-(trifluoromethyl)pyrazol-4-yl]imidazole-2-carbonyl]amino]benzoyl]piperazine-1-carboxamide] is 288 nM.

In general, IC90 refers to the point of the concentration-response curve where the effect stands at 90%.
